Measurements as given in patent US12109303B2, “Orally dissolving antimicrobial film compositions and methods of their use” (ISHA Therapeutics LLC, priority 2022, dated 2024).
≈ marks a conversion by molar mass, not a printed value. Read-outs that look alike come from different tables or passages of the source.

Columns and labels:
Candida tropicalis = assay: Resazurin microtiter assay (REMA) MIC; type: cell-based
Protocol: (§1) This Example provides a description of antifungal efficacy testing wherein minimum inhibitor concentration (MIC) of the active pharmaceutical ingredient amphotericin B in the orally dissolvable films disclosed herein compared to that of unmodified amphotericin B. The test organisms utilized in this experiment were Candida tropicalis and Candida albicans.
(§2) A resazurin microtiter assay (REMA) assay was performed using orally dissolvable films prepared according to the process described in Example 3 and unmodified amphotericin B. Samples were run in triplicate as Sets 1-3 for each test material against each pathogen.
(§3) Images of the microtiter plates used to conduct this experiment are shown in FIG. 5, illustrating the results of MIC assay. […] Results of the orally dissolvable film (“ODF (A)”) and unmodified amphotericin B (“AmpB (B)”) against Candida tropicalis and Candida albicans are shown in the microtiter plates on the left and right, respectively. The first row of each microtiter plate (top) contains a positive control (“P.C.”). The second row of each microtiter plate contains a negative control (“N.C.”).

Candida albicans [1] = assay: Resazurin microtiter assay (REMA) MIC; type: cell-based
Protocol: as §1, §2, §3

Candida albicans [2] = assay: Growth inhibition assay with resazurin colorimetric readout (MIC48h); type: cell-based; conditions: RPMI 1640, 30° C., 48±2 hours, unmodified drug in DMSO, film in aqueous media
Text: as §1, with “Tis” for “This”, “organism” for “organisms”, “was” for “were Candida tropicalis and”
Three to five colonies of a single Candida albicans strain were selected from stock YPD agar (agar comprising yeast extract, peptone, and dextrose; also referred to as YEPD agar) plates and suspended in Roswell Park Memorial Institute (RPMI) 1640 medium. The process was repeated to form a number of suspensions of Candida albicans. The Candida albicans suspensions were then each diluted to achieve an initial inoculum with an Abs600 of 0.010.
Test compositions of unmodified amphotericin B in DMSO and orally dissolvable films of amphotericin B in aqueous media were added, followed by serial dilution of the RPMI media.
A growth inhibition assay was performed in triplicate and results determined using a resazurin colorimetric assay. All plated compositions were incubated at 30° C. for 48±2 hours. […] After incubation, 20 μL of resazurin dye (0.02% w/v) was added to each well and observed for a change in dye color to determine cell viability.

[3] = limited solubility and permeability; cited from earlier work
[4] = Solubility in MiliQ water, quantified by HPLC; type: physicochemical; conditions: thermodynamic from solid, 0.5 mL MiliQ water, room temperature, 6 hours shaking, read-out: Solubility: average concentration of amphotericin B
[5] = read-out: Minimum Inhibitory Concentration, Avg.
[6] = read-out: Minimum Inhibitory Concentration, Set 1
[7] = read-out: Minimum Inhibitory Concentration, Set 2
[8] = read-out: Minimum Inhibitory Concentration, Set 3

In the case of `C[C@@H]1[C@H](O)[C@@H](C)/C=C/C=C/C=C/C=C/C=C/C=C/C=C/[C@H](O[C@@H]2O[C@H](C)[C@@H](O)[C@H](N)[C@@H]2O)C[C@@H]2O[C@](O)(C[C@@H](O)C[C@@H](O)[C@H](O)CC[C@@H](O)C[C@@H](O)CC(=O)O[C@H]1C)C[C@H](O)[C@H]2C(=O)O` [AmpB, (1R,3S,5R,6R,9R,11R,15S,16R,17R,18S,19E,21E, 23E, 25E, 27E,29E,31E,33R,35S,36R,37S)-33-[(2R,3S,4S,5S,6R)-4-amino-3,5-di hydroxy-6-methyloxan-2-yl] oxy-1,3,5,6,9,11,17,37-octahydroxy-15,16,18-trimethyl-13-oxo-14,39-dioxabicyclo[33.3.1]nonatriaconta-19,21,23, 25, 27,29,31-heptaene-36-carboxylic acid], the MIC (Candida tropicalis; read-out: Average MIC) is reported as 1.1 µg/mL (≈ 1.19 µM), the MIC (Candida tropicalis; [5]) is reported as 1.1 µg/mL (≈ 1.19 µM) and the MIC (Candida tropicalis; [6]) is reported as 1.1 µg/mL (≈ 1.19 µM). It also gave an MIC (Candida tropicalis; [7]) of 1.1 µg/mL (≈ 1.19 µM), an MIC (Candida tropicalis; [8]) of 1.1 µg/mL (≈ 1.19 µM) and an MIC (Candida albicans [1]; read-out: Average MIC) of 1.1 µg/mL (≈ 1.19 µM). The MIC (Candida albicans [1]; [5]) was 1.1 µg/mL (≈ 1.19 µM), the MIC (Candida albicans [1]; [6]) was 1.1 µg/mL (≈ 1.19 µM) and the MIC (Candida albicans [1]; [7]) was 1.1 µg/mL (≈ 1.19 µM). The MIC (Candida albicans [1]; [8]) was 1.1 µg/mL (≈ 1.19 µM), the MIC (Candida albicans [2]) was 1.25 µM (≈ 1.16 µg/mL) and the “Biopharmaceutics Classification System (BCS) class” value [3] was “class IV”. For the same compound, the solubility at 6 h [4] was 630 µg/mL (≈ 682 µM).
